Experimental data from patent US12653809B2, “Urea, amide, and substituted heteroaryl compounds for CBL-B inhibition” (Nurix Therapeutics, Inc., priority 2019, dated 2026).
Read-outs that look alike come from different tables or passages of the source.

Target: T1, Cbl-b (truncated variant, UniProt number Q13191) (Homo sapiens, UniProt Q13191)
T1 construct: made in house
Assay: Cbl-b activity assay (TR-FRET, interaction of Cbl-b with UbcH5B-Ub)
Assay type: biochemical

[1] = Biological Example 1A, low or high conditions not stated, read-out: IC50 values in the Cbl-b inhibition assay of Biological Example 1A
[2] = high conditions: 100 mM NaCl, 60 nM Src kinase, 12 nM Cbl-b, read-out: Cbl-b activity IC50

T1 sequence (Q13191 36-427): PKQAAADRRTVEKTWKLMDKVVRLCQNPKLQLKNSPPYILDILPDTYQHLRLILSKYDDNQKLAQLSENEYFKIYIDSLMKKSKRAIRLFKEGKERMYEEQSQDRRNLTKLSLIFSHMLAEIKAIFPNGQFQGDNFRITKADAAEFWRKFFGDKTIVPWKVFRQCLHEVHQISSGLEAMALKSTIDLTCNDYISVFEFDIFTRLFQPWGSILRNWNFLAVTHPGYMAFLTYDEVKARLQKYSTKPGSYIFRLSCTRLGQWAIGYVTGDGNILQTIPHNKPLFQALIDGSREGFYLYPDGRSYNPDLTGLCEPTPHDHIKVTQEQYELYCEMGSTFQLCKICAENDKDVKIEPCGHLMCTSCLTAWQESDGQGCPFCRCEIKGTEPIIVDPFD

Row | SMILES | IC50 [1] | IC50 [2]
1 | C[C@H](Cc1nncn1C)c1cccc(-c2n[nH]c3c(N4CCC(O)CC4)ccnc23)c1 [Example 117, (R)-1-(3-(3-(1-(4-methyl-4H-1,2,4-triazol-3-yl)propan-2-yl)phenyl)-1H-pyrazolo[4,3-b]pyridin-7-yl)piperidin-4-ol] | – | 1 to 5 µM
2 | C[C@H](Sc1nncn1C)c1cccc(NC(=O)Nc2cccc(C(F)(F)F)n2)c1 [Example 3, (S)-1-(3-(1-((4-methyl-4H-1,2,4-triazol-3-yl)thio)ethyl)phenyl)-3-(6-(trifluoromethyl)pyridin-2-yl)urea] | 0.1 to 1 µM | 0.1 to 1 µM
3 | C[C@H](Sc1nncn1C)c1cccc(NC(=O)N2CC(S(C)(=O)=O)C2)c1 [Example 134, 3-methanesulfonyl-N-[3-[(1S)-1-[(4-methyl-4H-1,2,4-triazol-3-yl)sulfanyl]ethyl]phenyl]azetidine-1-carboxamide] | – | ≥ 5 µM
4 | C[C@H](Sc1nncn1C)c1cccc(-n2cc(-c3cccc(Cl)c3)nn2)c1 [Example 79, 4-(3-chlorophenyl)-1-{3-[(1S)-1-[(4-methyl-4H-1,2,4-triazol-3-yl)sulfanyl]ethyl]phenyl}-1H-1,2,3-triazole] | – | 1 to 5 µM
5 | C[C@H](Sc1nncn1C)c1cccc(NC(=O)N2CCCCC2)c1 [Example 124, (S)—N-(3-(1-((4-methyl-4H-1,2,4-triazol-3-yl)thio)ethyl)phenyl)piperidine-1-carboxamide] | – | ≥ 5 µM
6 | COC(=O)C1(C(F)(F)F)CCN(C(=O)Nc2cccc([C@H](C)Cc3nncn3C)c2)C1 (stereo partly drawn) [Example 11, Methyl 1-((3-((R)-1-(4-methyl-4H-1,2,4-triazol-3-yl)propan-2-yl)phenyl)carbamoyl)-3-(trifluoromethyl)pyrrolidine-3-carboxylate] | 1 to 5 µM | 1 to 5 µM
7 | Cn1cnnc1[C@H]1C[C@H]1c1cccc(NC(=O)N2CCOc3cccnc32)c1 [Example 166, N-(3-((1R,2S)-2-(4-methyl-4H-1,2,4-triazol-3-yl)cyclopropyl)phenyl)-2,3-dihydro-4H-pyrido[3,2-b][1,4]oxazine-4-carboxamide] | – | ≥ 5 µM
8 | C[C@H](Sc1nncn1C)c1cccc(NC(=O)N2CC3(CCCO3)C2)c1 [Example 138, N-[3-[(1S)-1-[(4-methyl-4H-1,2,4-triazol-3-yl)sulfanyl]ethyl]phenyl]-5-oxa-2-azaspiro[3.4]octane-2-carboxamide] | – | ≥ 5 µM
9 | C[C@H](Sc1nncn1C)c1cccc(NC(=O)N2CCn3nccc3C2)c1 [Example 44, (S)—N-(3-(1-((4-methyl-4H-1,2,4-triazol-3-yl)thio)ethyl)phenyl)-6,7-dihydropyrazolo[1,5-a]pyrazine-5(4H)-carboxamide] | – | ≥ 5 µM
10 | COc1cccc(-c2cn(-c3cccc([C@H](C)Sc4nncn4C)c3)nn2)c1 [Example 77, (S)-4-(3-methoxyphenyl)-1-(3-(1-((4-methyl-4H-1,2,4-triazol-3-yl)thio)ethyl)phenyl)-1H-1,2,3-triazole] | – | 1 to 5 µM
11 | C[C@H](Sc1nncn1C)c1cccc(NC(=O)N2CCO[C@H]([C@H]3CCCO3)C2)c1 [Example 135, (S)—N-(3-((S)-1-((4-methyl-4H-1,2,4-triazol-3-yl)thio)ethyl)phenyl)-2-((R)-tetrahydrofuran-2-yl)morpholine-4-carboxamide] | – | ≥ 5 µM
12 | CC1CN(C(=O)Nc2cccc([C@H](C)Sc3nncn3C)c2)CC(C)O1 (stereo partly drawn) [Example 42, 2,6-dimethyl-N-(3-((S)-1-((4-methyl-4H-1,2,4-triazol-3-yl)thio)ethyl)phenyl)morpholine-4-carboxamide] | – | ≥ 5 µM
13 | C[C@H](Sc1nncn1C)c1cccc(-n2cc(-c3ccc(C#N)cc3)nn2)c1 [Example 89, (S)-4-(1-(3-(1-(4-methyl-4H-1,2,4-triazol-3-ylthio)ethyl)phenyl)-1H-1,2,3-triazol-4-yl)benzonitrile] | 1 to 5 µM | 1 to 5 µM
14 | CC(CO)N(C)C(=O)Nc1cccc([C@H](C)Sc2nncn2C)c1 (stereo partly drawn) [Example 143, 1-(1-hydroxypropan-2-yl)-1-methyl-3-(3-((S)-1-((4-methyl-4H-1,2,4-triazol-3-yl)thio)ethyl)phenyl)urea] | – | ≥ 5 µM
15 | C[C@H](Sc1nncn1C)c1cccc(NC(=O)N2CC3(CCOC(=O)N3)C2)c1 [Example 141, (S)—N-(3-(1-((4-methyl-4H-1,2,4-triazol-3-yl)thio)ethyl)phenyl)-6-oxo-7-oxa-2,5-diazaspiro[3.5]nonane-2-carboxamide] | – | ≥ 5 µM
16 | C[C@@H](Sc1nncn1C)c1cccc(-c2cc(-c3ccccc3)no2)c1 [Example 68, (R)-5-(3-(1-((4-methyl-4H-1,2,4-triazol-3-yl)thio)ethyl)phenyl)-3-phenylisoxazole] | ≥ 5 µM | ≥ 5 µM
17 | Cn1cnnc1CC1(c2cccc(C(=O)Nc3cccc(C4CC4)n3)c2)COC1 [Example 37, N-(6-cyclopropylpyridin-2-yl)-3-(3-((4-methyl-4H-1,2,4-triazol-3-yl)methyl)oxetan-3-yl)benzamide] | ≥ 5 µM | ≥ 5 µM

The remaining lines, values ahead:

Row | IC50 [1] | IC50 [2] | SMILES
18 | ≥ 5 µM | ≥ 5 µM | CNC(=O)c1ccc(-c2cn(-c3cccc([C@H](C)Sc4nncn4C)c3)nn2)cc1 [Example 83, (S)—N-methyl-4-(1-(3-(1-(4-methyl-4H-1,2,4-triazol-3-ylthio)ethyl)phenyl)-1H-1,2,3-triazol-4-yl)benzamide]
19 | 0.1 to 1 µM | 0.1 to 1 µM | Cc1cccc2c1CN(C(=O)Nc1cccc([C@H](C)Cc3nncn3C)c1)C2 [Example 13, (R)-4-methyl-N-(3-(1-(4-methyl-4H-1,2,4-triazol-3-yl)propan-2-yl)phenyl)isoindoline-2-carboxamide]
20 | – | ≥ 5 µM | C[C@H](Sc1nncn1C)c1cccc(NC(=O)N2CCC(c3ccccc3)C2)c1 (stereo partly drawn) [Example 127, N-(3-((S)-1-((4-methyl-4H-1,2,4-triazol-3-yl)thio)ethyl)phenyl)-3-phenylpyrrolidine-1-carboxamide]
21 | – | 1 to 5 µM | C[C@H](Cc1nncn1C)c1cccc(-c2n[nH]c3cccnc23)c1 [Example 118, (R)-3-(3-(1-(4-methyl-4H-1,2,4-triazol-3-yl)propan-2-yl)phenyl)-1H-pyrazolo[4,3-b]pyridine]
22 | – | 1 to 5 µM | Cc1cccc(-c2cc(-c3cccc([C@H](C)Sc4nncn4C)c3)on2)c1 [Example 56, 4-methyl-3-[[(1S)-1-[3-[3-(3-methylphenyl)-1,2-oxazol-5-yl]phenyl]ethyl]sulfanyl]-4H-1,2,4-triazole]
23 | – | 1 to 5 µM | C[C@H](Cc1nncn1C)c1cccc(-c2n[nH]c3cc(C4CCC4)cnc23)c1 [Example 120, (R)-6-cyclobutyl-3-(3-(1-(4-methyl-4H-1,2,4-triazol-3-yl)propan-2-yl)phenyl)-1H-pyrazolo[4,3-b]pyridine]
24 | – | 1 to 5 µM | C[C@H](Sc1nncn1C)c1cccc(-c2cc(-c3ccc(Cl)cc3)no2)c1 [Example 57, (S)-3-(4-chlorophenyl)-5-(3-(1-((4-methyl-4H-1,2,4-triazol-3-yl)thio)ethyl)phenyl)isoxazole]
25 | – | ≥ 5 µM | C[C@H](Sc1nncn1C)c1cccc(NC(=O)N2CCC(c3ccccn3)C2)c1 (stereo partly drawn) [Example 157, N-(3-((S)-1-((4-methyl-4H-1,2,4-triazol-3-yl)thio)ethyl)phenyl)-3-(pyridin-2-yl)pyrrolidine-1-carboxamide]
